Measured values reported in patent publication US6989385B2, “Pyrazole compounds useful as protein kinase inhibitors” (Vertex Pharmaceuticals Incorporated, priority 2000, dated 2006).

Target: T1, Aurora-2 (Homo sapiens, UniProt O14965)
T1 sequence (O14965 1-403): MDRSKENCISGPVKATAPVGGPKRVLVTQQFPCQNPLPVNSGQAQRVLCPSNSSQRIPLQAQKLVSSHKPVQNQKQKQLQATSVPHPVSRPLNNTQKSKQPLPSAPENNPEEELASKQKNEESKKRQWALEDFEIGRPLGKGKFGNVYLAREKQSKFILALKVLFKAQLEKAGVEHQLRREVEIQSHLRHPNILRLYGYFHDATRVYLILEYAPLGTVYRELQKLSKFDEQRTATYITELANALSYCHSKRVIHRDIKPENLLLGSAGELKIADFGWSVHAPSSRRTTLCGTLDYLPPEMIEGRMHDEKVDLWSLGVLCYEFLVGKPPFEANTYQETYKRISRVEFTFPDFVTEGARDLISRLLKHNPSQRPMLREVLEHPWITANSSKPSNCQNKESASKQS
Assay: Ki determination for the inhibition of Aurora-2 (coupled enzyme assay)
Type: biochemical
Conditions: 70 nM Aurora-2, 30° C.
Description: To an assay stock buffer solution containing 0.1 M HEPES 7.5, 10 mM MgCl2, 1 mM DTT, 25 mM NaCl, 2.5 mM phosphoenolpyruvate, […], 30 mg/ml pyruvate kinase, 10 mg/ml lactate dehydrogenase, 40 mM ATP, and 800 μM peptide (LRRASLG, American Peptide, Sunnyvale, Calif.) was added a DMSO solution of a compound of the present invention to a final concentration of 30 μM. The resulting mixture was incubated at 30° C. for 10 min. The reaction was initiated by the addition of 10 μL of Aurora-2 stock solution to give a final concentration of 70 nM in the assay. […] The Ki values were determined from the rate data as a function of inhibitor concentration.

Ki: 100 to 1000 nM
Structure (SMILES): Cc1cc(Nc2cc(C)[nH]n2)nc(C(C)(C)c2ccccc2)n1 [IIId-20]
